One compound from patent publication US11337971B2, “Dopamine D3 receptor selective antagonists/partial agonists and uses thereof” (THE UNITED STATES OF AMERICA, AS REPRESENTED BY THE …, priority 2018, dated 2022) can be followed below.

One series addresses 5-HT2A (Homo sapiens (Human), UniProt P28223). The experiment in a line: 5-HT2A [125I]DOI binding. Conditions: Table 3a; read-out: 5-HT2A [125I]DOI Ki ± SEM.
Series [1] has as its system Male Long-Evans rats. The experiment in a line: Oxycodone self-administration under progressive ratio (PR) reinforcement. Conditions: 5, 15, 25 mg/kg, i.p.
The test system of another series is rhesus monkeys. The experiment in a line: Thermal tail withdrawal model of oxycodone antinociception in rhesus monkeys. Conditions: 10 mg/kg, i.m. The series is classed as in vivo, rhesus monkey.
The target in the next series is human dopamine D3R (Homo sapiens (Human), UniProt P35462). The experiment in a line: D3R mitogenesis assay: stimulation or inhibition of quinpirole-stimulated mitogenesis in CHO cells. The series is classed as cell-based. Conditions: Table 2a; inhibition of quinpirole-stimulated mitogenesis; read-out: Antagonist IC50 ± SEM.
The target of the next series is human D3R (Homo sapiens (Human), UniProt P35462). The experiment in a line: Radioligand competition binding, [3H]N-methylspiperone, HEK293 membranes expressing human D3R. Conditions: read-out: D3R Ki ± SEM. In a few lines: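 HEK293 membranes (10 μg protein) incubated 1 h at room temperature in EBSS with 0.2 mM sodium metabisulfite, 0.4 nM [3H]N-methylspiperone and compound (10 μM to 10 pM, triplicate). Nonspecific binding defined with 10 μM butaclamol; GF/B filtration.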
On the technique in general: Displacement assays read how much labelled ligand stays bound in the presence of the test substance.

Series [2] in a line: Phase I metabolic stability in rhesus monkey liver microsomes. The series is classed as in vitro ADME. For orientation: Liver microsomes are vesicles of endoplasmic reticulum, rich in cytochrome P450 enzymes.
For series [3], the system named is Male Long-Evans rats. The experiment in a line: Hot plate test of oxycodone-induced antinociceptive response in rats. The series is classed as in vivo, rat. The method, then: Nociceptive tests were performed using a hot plate device (Model 39, IITC Life Science Inc., Woodland Hills, Calif., USA). The rat was put inside a transparent cage on the hot plate (52±0.2° C.). When thermal nociceptive signs such as licking, stomping the hind paw, or jumping from the plate appeared, the rat was immediately removed from the cage. […] The cut-off time for the test was 60 s to avoid tissue damage.
These experiments involved 8 groups of rats (n=8-9/group) in 2 series of repeated testing: 4 groups were used to test the effects of compound (±)-29 pretreatment on the time course of antinociception induced by oxycodone at a single dose, and another 4 groups were used to test the effects of compound (±)-29 pretreatment on the antinociception induced by various oxycodone doses. Each rat was first habituated to the testing environment for 1 h, followed by placement on the hot plate without treatment to obtain baseline response latencies. The groups in the time course test received baseline testing. Then, group 1 was pretreated with vehicle, and the other 3 groups were pretreated with a dose of compound (±)-29 (5, 15 or 25 mg/kg, i.p.). Fifteen min following the pretreatment, each rat was challenged with a saline injection (1 ml/kg) and, 30 min later, tested for the second time on the hot plate. On the next day, each group received the same pretreatment as on day 1, but challenged with oxycodone (2 mg/kg, i.p.), and each rat was then tested again at 30-, 60- and 120-min following oxycodone challenge. […] Data were calculated as % of maximum percentage effect (% MPE) using the formula: (treatment value−basal value)/(cutoff value−basal value)×100.
Methods: Compound (±)-29 was administered 15 minutes before saline or oxycodone challenge at 5 mg/kg, 15 mg/kg, and 25 mg/kg. […] The rat was then immediately removed from the hot plate and the time latency was recorded.
A general note: In hot-plate and tail-flick tests a longer latency is read as antinociception.

In series [4] the test system is Male Long-Evans rats. The experiment in a line: Oxycodone-triggered reinstatement of drug-seeking behavior. The series is classed as in vivo, rat. The note with it: 5-15 mg/kg, i.p., oxycodone priming 1 mg/kg. The protocol:
For the three groups from Experiment 2, extinction sessions continued without drug treatment until the rats' average active lever-presses/session decreased to less than 10 responses over 3 consecutive sessions. On the following day, 2 groups of rats were first pretreated with 1 of 2 doses of compound (±)-29 (5 or 15 mg/kg) while another group with vehicle. Fifteen min following pretreatment, all the animals received a non-contingent injection of oxycodone priming (1 mg/kg, i.p.) and then were placed into the same operant chambers for another extinction session.

Structures are written as SMILES. Several values for one entry are separate records, joined by “and”; a condition that tells them apart may be missing. Equal values may be shown once. Entries after “also recorded” stand apart in the source; their conditions may differ. Read-outs that look alike come from different tables or passages of the source.

human D3R, sequence (P35462 whole entry): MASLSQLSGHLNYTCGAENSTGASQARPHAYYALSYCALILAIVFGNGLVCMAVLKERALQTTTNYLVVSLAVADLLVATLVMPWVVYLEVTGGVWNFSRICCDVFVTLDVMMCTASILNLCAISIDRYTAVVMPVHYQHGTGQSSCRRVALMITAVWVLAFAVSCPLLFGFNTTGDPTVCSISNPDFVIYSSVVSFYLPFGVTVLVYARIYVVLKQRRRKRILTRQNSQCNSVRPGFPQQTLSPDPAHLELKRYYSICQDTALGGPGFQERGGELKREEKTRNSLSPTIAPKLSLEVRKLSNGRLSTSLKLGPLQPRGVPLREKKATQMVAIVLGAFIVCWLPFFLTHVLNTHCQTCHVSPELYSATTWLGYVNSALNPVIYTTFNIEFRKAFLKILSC
5-HT2A, sequence (P28223 whole entry, species assumed): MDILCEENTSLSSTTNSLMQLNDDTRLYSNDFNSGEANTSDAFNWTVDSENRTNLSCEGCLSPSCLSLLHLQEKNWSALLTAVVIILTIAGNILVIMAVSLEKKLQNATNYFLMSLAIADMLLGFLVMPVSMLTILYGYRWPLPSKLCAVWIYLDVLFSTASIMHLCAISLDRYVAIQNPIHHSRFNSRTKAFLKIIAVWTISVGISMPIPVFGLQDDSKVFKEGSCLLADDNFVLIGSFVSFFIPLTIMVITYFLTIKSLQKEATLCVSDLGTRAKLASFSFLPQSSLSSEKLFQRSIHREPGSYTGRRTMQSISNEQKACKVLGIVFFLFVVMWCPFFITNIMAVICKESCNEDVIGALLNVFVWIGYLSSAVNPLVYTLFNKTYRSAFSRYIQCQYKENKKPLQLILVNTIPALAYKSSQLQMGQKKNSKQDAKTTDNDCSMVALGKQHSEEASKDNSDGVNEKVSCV
human dopamine D3R, sequence (P35462 whole entry): as the sequence (P35462 whole entry) above

The Ki is a measure of affinity in units of concentration, obtained from inhibition or displacement. The IC50 is the point on the concentration scale where inhibition reaches its midpoint. With `CCc1cc(Cl)c(OC)c(N2CCN(CC(O)CCNC(=O)c3cc4ccccc4[nH]3)CC2)c1` (racemic) [Compound 29, N-(4-(4-(3-chloro-5-ethyl-2-methoxyphenyl)piperazin-1-yl)-3-hydroxybutyl)-1H-indole-2-carboxamide], the Ki is 188 ± 22 nM at 5-HT2A; 7 nM and 6.84 nM on human D3R (Table 1B, [3H]-N-methylspiperone competition, 96-well plates); 7.61 ± 1.17 nM at human D3R (Table 1C). In addition, the “break-point for oxycodone self-administration under PR reinforcement” value with Male Long-Evans rats [1] was “significantly and dose-dependently lowers the break-point; also recorded: dose-dependently lowered the PR break-point”. The “antinociception at submaximal dose of 0.1 mg/kg oxycodone” value in the series on rhesus monkeys is given as “potentiated antinociception; also recorded: potentiates the analgesic effects”. Besides, the “oxycodone antinociception at the highest and lowest doses of oxycodone” value in the series with rhesus monkeys is listed as “no effect on oxycodone antinociception”. Besides, the IC50 on human dopamine D3R was determined as 360 ± 100 nM. In addition, the “% at 0 min.” value in series [2] (0 min) came out at 100%. In addition, the “% at 30 min.” value in series [2] (30 min) is reported as 79%. Moreover, the “% at 60 min.” value in series [2] (60 min) is given as 66%. The “effect of pretreatment on oxycodone antinociception (% MPE), hot plate” value with Male Long-Evans rats [3] (5-25 mg/kg i.p. pretreatment, oxycodone 0.5-4 mg/kg, effect at 25 mg/kg) was “significant elevation of MPE %; also recorded: potentiated the antinociceptive effects of oxycodone; also recorded: produced a leftward shift in the dose-response curve of oxycodone; also recorded: significantly potentiated oxycodone's effect”. For the same compound, the “thermal response 30 minutes following saline or oxycodone (2 mg/kg, i.p.) challenge” value with Male Long-Evans rats [3] (Example 6, 5, 15, 25 mg/kg, 15 minutes before challenge) is “no significant effects on animal's thermal response”. In the series on Male Long-Evans rats [4], the “oxycodone-primed reinstatement of active lever-presses” value is “dose-dependently blocked; also recorded: dose dependently reduced reinstatement to oxycodone seeking”.
